Reference: patent US20230017045A1, “PYRIDINE AND PYRIMIDINE CARBOXYLATE HERBICIDES AND METHODS OF USE THEREOF” (Dow AgroSciences LLC, priority 2017, published 2023)
Read-outs that look alike come from different tables or passages of the source.

Test system: test plant species
Assay: Post-emergent herbicidal activity test (greenhouse, foliar spray, visual growth reduction)
Assay type: in vivo
Conditions: post-emergence, 336 h, 140 g ai/ha
Procedure, shortened: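 Scoring used a 0 to 100 percent visual scale of growth reduction against solvent-treated controls, read 14 d after spraying. Applications went onto plants at first or second true leaf stage, 187 L/ha, with crop oil concentrate and X-77 surfactant in the carrier. Post-treatment watering was by subirrigation to avoid wash-off.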

[1] = ALOMY: blackgrass (Alopecurus myosuroides), 14 days after application, read-out: Visual Growth Reduction (%) 14 Days After Application, ALOMY
[2] = AMARE: redroot pigweed (Amaranthus retroflexus), 14 days after application, read-out: Visual Growth Reduction (%) 14 Days After Application, AMARE
[3] = AVEFA: wild oat (Avena fatua), 14 days after application, read-out: Visual Growth Reduction (%) 14 Days After Application, AVEFA
[4] = CHEAL: lambsquarters (Chenopodium album), 14 days after application, read-out: Visual Growth Reduction (%) 14 Days After Application, CHEAL
[5] = CIRAR: canada thistle (Cirsium arvense), 14 days after application, read-out: Visual Growth Reduction (%) 14 Days After Application, CIRAR
[6] = CYPES: yellow nutsedge (Cyperus esculentus), 14 days after application, read-out: Visual Growth Reduction (%) 14 Days After Application, CYPES
[7] = DIGSA: crabgrass (Digitaria sanguinalis), 14 days after application, read-out: Visual Growth Reduction (%) 14 Days After Application, DIGSA
[8] = ECHCG: barnyardgrass (Echinochloa crus-galli), 14 days after application, read-out: Visual Growth Reduction (%) 14 Days After Application, ECHCG
[9] = ORYSA: rice (Oryza sativa), 14 days after application, read-out: Visual Growth Reduction (%) 14 Days After Application, ORYSA
[10] = SETFA: giant foxtail (Setaria faberi), 14 days after application, read-out: Visual Growth Reduction (%) 14 Days After Application, SETFA
[11] = SORVU: grain sorghum (Sorghum vulgare), 14 days after application, read-out: Visual Growth Reduction (%) 14 Days After Application, SORVU
[12] = STEME: common chickweed (Stellaria media), 14 days after application, read-out: Visual Growth Reduction (%) 14 Days After Application, STEME
[13] = TRZAS: wheat, spring (Triticum aestivum), 14 days after application, read-out: Visual Growth Reduction (%) 14 Days After Application, TRZAS
[14] = IPOHE: ivy-leaf morning glory (Ipomoea hederacea), 14 days after application, read-out: Visual Growth Reduction (%) 14 Days After Application, IPOHE
[15] = KCHSC: kochia (Bassia scoparia), 14 days after application, read-out: Visual Growth Reduction (%) 14 Days After Application, KCHSC
[16] = blackgrass (Alopecurus myosuroides), 14 Days After Application, read-out: Visual Growth Reduction (%) ALOMY
[17] = canada thistle (Cirsium arvense), 14 Days After Application, read-out: Visual Growth Reduction (%) CIRAR
[18] = crabgrass (Digitaria sanguinalis), 14 Days After Application, read-out: Visual Growth Reduction (%) DIGSA
[19] = lambsquarters (Chenopodium album), 14 Days After Application, read-out: Visual Growth Reduction (%) CHEAL
[20] = redroot pigweed (Amaranthus retroflexus), 14 Days After Application, read-out: Visual Growth Reduction (%) AMARE
[21] = wild oat (Avena fatua), 14 Days After Application, read-out: Visual Growth Reduction (%) AVEFA
[22] = yellow nutsedge (Cyperus esculentus), 14 Days After Application, read-out: Visual Growth Reduction (%) CYPES

| Compound | pest or weed control at 140 g/ha [1] | pest or weed control at 140 g/ha [2] | pest or weed control at 140 g/ha [3] | pest or weed control at 140 g/ha [4] | pest or weed control at 140 g/ha [5] | pest or weed control at 140 g/ha [6] | pest or weed control at 140 g/ha [7] | pest or weed control at 140 g/ha [8] | pest or weed control at 140 g/ha [9] | pest or weed control at 140 g/ha [10] | pest or weed control at 140 g/ha [11] | pest or weed control at 140 g/ha [12] | pest or weed control at 140 g/ha [13] | pest or weed control at 140 g/ha [14] | pest or weed control at 140 g/ha [15] | pest or weed control at 140 g/ha [16] | pest or weed control at 140 g/ha [17] | pest or weed control at 140 g/ha [18] | pest or weed control at 140 g/ha [19] | pest or weed control at 140 g/ha [20] | other results |
| --- | --- | --- | --- | --- | --- | --- | --- | --- | --- | --- | --- | --- | --- | --- | --- | --- | --- | --- | --- | --- | --- |
| COC(=O)c1nc(-c2ccc(Cl)cc2)c(N)cc1Cl [F72, methyl 5-amino-3-chloro-6-(4-chlorophenyl)picolinate] | 0 to 29% | 0 to 29% | 0 to 29% | 0 to 29% | 0 to 29% | 0 to 29% | 0 to 29% | 0 to 29% | 0 to 29% | 0 to 29% | 0 to 29% | 0 to 29% | 0 to 29% | – | – | – | – | – | – | – | – |
| COC(=O)c1nc(-c2ccc(Cl)c(C)c2F)ccc1Cl [F272, Methyl 3-chloro-6-(4-chloro-2-fluoro-3-methylphenyl) picolinate] | – | – | – | – | – | – | – | 0 to 29% | 0 to 29% | 0 to 29% | 0 to 29% | 0 to 29% | 0 to 29% | 0 to 29% | 0 to 29% | 0 to 29% | 0 to 29% | 0 to 29% | 0 to 29% | 0 to 29% | pest or weed control at 140 g/ha [21]: 0 to 29%; pest or weed control at 140 g/ha [22]: 0 to 29% |
| COC(=O)c1nc(-c2ccc(SC(F)(F)F)cc2)ccc1Cl [F97, Methyl 3-chloro-6-(4-((trifluoromethyl)thio)phenyl)picolinate] | 0 to 29% | 0 to 29% | 0 to 29% | 0 to 29% | 0 to 29% | 0 to 29% | 0 to 29% | 0 to 29% | 0 to 29% | 0 to 29% | 0 to 29% | 0 to 29% | 0 to 29% | 0 to 29% | 0 to 29% | – | – | – | – | – | – |
| COC(=O)c1nc(-c2cc3c(cc2Cl)OCO3)c(Cl)cc1Cl [F155, Methyl 3,5-dichloro-6-(6-chlorobenzo[d] [1,3]dioxol-5-yl)picolinate] | 0 to 29% | 60 to 74% | 0 to 29% | 75 to 84% | 0 to 29% | 0 to 29% | 0 to 29% | 0 to 29% | 0 to 29% | 0 to 29% | 0 to 29% | 0 to 29% | 0 to 29% | 0 to 29% | 0 to 29% | – | – | – | – | – | – |
| O=C(O)c1nc(-c2cc(Br)c(C(F)(F)F)cc2Cl)c(F)cc1Cl [F181, 6-(5-Bromo-2-chloro-4-(trifluoromethyl)phenyl)-3-chloro-5-fluoropicolinic acid] | 30 to 44% | 95 to 100% | 30 to 44% | 95 to 100% | 75 to 84% | 45 to 59% | 95 to 100% | 60 to 74% | 0 to 29% | 30 to 44% | 95 to 100% | 0 to 29% | 45 to 59% | 95 to 100% | 60 to 74% | – | – | – | – | – | – |
| O=C(O)c1nc(-c2ccc3occc3c2)c(F)cc1Cl [F198, 6-(Benzofuran-5-yl)-3-chloro-5-fluoropicolinic acid] | 0 to 29% | 0 to 29% | 0 to 29% | 0 to 29% | 0 to 29% | 0 to 29% | 0 to 29% | 0 to 29% | 0 to 29% | 0 to 29% | 0 to 29% | 0 to 29% | 0 to 29% | 60 to 74% | 0 to 29% | – | – | – | – | – | – |
| COC(=O)c1nc(-c2ccc(C(F)(F)F)nc2)c(Cl)cc1Cl [F99, methyl 3,5-dichloro-6′-(trifluoromethyl)-[2,3′-bipyridine]-6-carboxylate] | 0 to 29% | 0 to 29% | 0 to 29% | 0 to 29% | 0 to 29% | 0 to 29% | 0 to 29% | 0 to 29% | 0 to 29% | 0 to 29% | 0 to 29% | 0 to 29% | 0 to 29% | 0 to 29% | 0 to 29% | – | – | – | – | – | – |
| COC(=O)c1nc(-c2cc(F)c3c(c2)OC(F)(F)O3)ccc1Cl [F367, Methyl 3-chloro-6-(2,2,7-trifluorobenzo[d][1,3]dioxol-5-yl)picolinate] | – | – | – | – | – | – | – | 0 to 29% | 0 to 29% | 0 to 29% | 0 to 29% | 0 to 29% | 0 to 29% | 95 to 100% | 0 to 29% | 0 to 29% | 0 to 29% | 75 to 84% | 0 to 29% | 0 to 29% | pest or weed control at 140 g/ha [21]: 0 to 29%; pest or weed control at 140 g/ha [22]: 0 to 29% |
| COC(=O)c1nc(-c2cc3c(cc2OC)OC(F)(F)O3)ccc1Cl [F353, Methyl 3-chloro-6-(2,2-difluoro-6-methoxybenzo[d][1,3]dioxol-5-yl)picolinate] | – | – | – | – | – | – | – | 0 to 29% | 0 to 29% | 0 to 29% | 45 to 59% | 0 to 29% | 0 to 29% | 95 to 100% | 0 to 29% | 0 to 29% | 0 to 29% | 0 to 29% | 45 to 59% | 0 to 29% | pest or weed control at 140 g/ha [21]: 0 to 29%; pest or weed control at 140 g/ha [22]: 0 to 29% |
| COC(=O)c1nc(-c2cc3c(cc2Cl)OC(F)(F)O3)c(F)cc1Cl [F153, Methyl 3-chloro-6-(6-chloro-2,2-difluorobenzo[d] [1,3]dioxol-5-yl)-5-fluoropicolinate] | 60 to 74% | 95 to 100% | 60 to 74% | 85 to 94% | 85 to 94% | 0 to 29% | 85 to 94% | 75 to 84% | 0 to 29% | 85 to 94% | 95 to 100% | 0 to 29% | 30 to 44% | 95 to 100% | 85 to 94% | – | – | – | – | – | – |
